The results in this text go back to patent publication US9732075B2, “Benzimidazole-proline derivatives” (IDORSIA PHARMACEUTICALS LTD, priority 2012, dated 2017).

pIC50: −log10 of the molar value.

The target in one assay is human orexin-1 receptor (Homo sapiens (Human), UniProt O43613). In words: In vitro assay: intracellular calcium measurements (FLIPR), antagonistic activity. The format is cell-based. Conditions: CHO cells expressing human orexin-1 receptor, orexin-A agonist, geometric mean, read-out: IC50 Ox1. Put shortly:
(§1)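 IC50s are geometric means, possibly reference-normalized, from FLIPR calcium peaks in CHO cells bearing human orexin-1 or orexin-2 receptor. Fluo-4 AM/probenecid-loaded cells received antagonist for 120 min before challenge with orexin-A (final 3 nM, ~EC70), with responses compared against vehicle controls.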

For another assay, the target named is human orexin-2 receptor (Homo sapiens (Human), UniProt O43614). Described as above. The format is cell-based. The conditions noted are these: CHO cells expressing human orexin-2 receptor, orexin-A agonist, geometric mean, read-out: IC50 Ox2. Put shortly:
as §1

A word on the pIC50: it is the negative decadic logarithm of the IC50, by convention in mol/L.

Sequence of human orexin-2 receptor (O43614 whole entry): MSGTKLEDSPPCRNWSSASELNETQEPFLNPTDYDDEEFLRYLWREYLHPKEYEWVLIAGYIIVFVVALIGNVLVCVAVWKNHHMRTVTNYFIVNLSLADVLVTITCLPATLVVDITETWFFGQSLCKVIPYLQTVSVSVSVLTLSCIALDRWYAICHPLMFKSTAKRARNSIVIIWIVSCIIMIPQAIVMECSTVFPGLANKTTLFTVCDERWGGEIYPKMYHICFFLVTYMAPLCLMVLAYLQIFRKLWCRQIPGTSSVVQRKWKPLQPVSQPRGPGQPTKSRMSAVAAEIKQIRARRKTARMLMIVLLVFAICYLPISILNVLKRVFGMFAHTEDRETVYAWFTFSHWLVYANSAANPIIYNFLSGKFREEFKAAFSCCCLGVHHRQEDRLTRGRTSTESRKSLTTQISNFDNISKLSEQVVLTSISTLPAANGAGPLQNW
Sequence of human orexin-1 receptor (O43613 whole entry): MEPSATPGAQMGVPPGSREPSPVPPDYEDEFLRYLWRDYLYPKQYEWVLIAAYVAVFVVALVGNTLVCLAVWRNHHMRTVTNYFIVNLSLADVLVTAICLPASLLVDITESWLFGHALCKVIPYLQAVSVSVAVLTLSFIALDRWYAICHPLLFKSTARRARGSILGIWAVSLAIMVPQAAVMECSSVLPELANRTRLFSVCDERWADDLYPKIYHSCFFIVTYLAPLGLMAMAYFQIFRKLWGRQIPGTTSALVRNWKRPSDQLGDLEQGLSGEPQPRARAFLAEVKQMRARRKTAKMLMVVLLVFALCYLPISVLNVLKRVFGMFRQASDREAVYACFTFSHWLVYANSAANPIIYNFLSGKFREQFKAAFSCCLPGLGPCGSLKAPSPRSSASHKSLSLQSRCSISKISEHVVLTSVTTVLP

`COc1ccc2nc([C@@H]3CCCN3C(=O)c3cc(Cl)ccc3-n3nccn3)[nH]c2c1` [Ex. 1.157]: the pIC50 is 6.38 on human orexin-1 receptor and 8.00 on human orexin-2 receptor.

With `COc1ccc(-n2nccn2)c(C(=O)N2CCC[C@H]2c2nc3ccc(OC)cc3[nH]2)c1` [Ex. 1.158], the values for the pIC50 on human orexin-1 receptor and at human orexin-2 receptor were 6.27 and 7.70, respectively.

With `COc1ccc2nc([C@@H]3CCCN3C(=O)c3cc(C#N)ccc3-n3nccn3)[nH]c2c1` [Ex. 1.159], the pIC50 on human orexin-1 receptor is 6.04; on human orexin-2 receptor it was 7.64.

On to `COc1ccc2nc([C@@H]3CCCN3C(=O)c3ccc(C)cc3-n3nccn3)[nH]c2c1` [Ex. 1.160], for which the pIC50 on human orexin-1 receptor is 6.61; at human orexin-2 receptor it was 8.30.

Take `COc1ccc2nc([C@@H]3CCCN3C(=O)c3c(C)cccc3-n3nccn3)[nH]c2c1` [Ex. 1.161]: the pIC50 on human orexin-1 receptor is 5.84; on human orexin-2 receptor it was 7.66.

On to `COc1ccc2nc([C@@H]3CCCN3C(=O)c3cc(OC)c(OC)cc3-n3nccn3)[nH]c2c1` [Ex. 1.162], for which the pIC50 on human orexin-1 receptor was 6.34; on human orexin-2 receptor, 7.57.

With `CSc1cccc2nc([C@@H]3CCCN3C(=O)c3cc(F)ccc3-n3nccn3)[nH]c12` [Ex. 1.163], the pIC50 was 6.78 at human orexin-1 receptor and 7.77 at human orexin-2 receptor.

With `CSc1cccc2nc([C@@H]3CCCN3C(=O)c3c(F)cccc3-n3nccn3)[nH]c12` [Ex. 1.164], the pIC50 on human orexin-1 receptor is 6.66; on human orexin-2 receptor, 7.62.

As for `CSc1cccc2nc([C@@H]3CCCN3C(=O)c3cc(Cl)ccc3-n3nccn3)[nH]c12` [Ex. 1.165], the pIC50 on human orexin-1 receptor was 7.12; on human orexin-2 receptor, 8.05.

As for `COc1ccc(-n2nccn2)c(C(=O)N2CCC[C@H]2c2nc3cccc(SC)c3[nH]2)c1` [Ex. 1.166], the pIC50 on human orexin-1 receptor was 7.35; on human orexin-2 receptor, 8.40.

With `CSc1cccc2nc([C@@H]3CCCN3C(=O)c3cc(C#N)ccc3-n3nccn3)[nH]c12` [Ex. 1.167], the pIC50 is 7.01 at human orexin-1 receptor and 7.82 on human orexin-2 receptor.

In the case of `COc1ccc(-n2nccn2)c(C(=O)N2CCC[C@H]2c2nc3cccc(SC)c3[nH]2)c1F` [Ex. 1.168], the pIC50 at human orexin-1 receptor was 7.70; at human orexin-2 receptor it was 7.24.

As to `CSc1cccc2nc([C@@H]3CCCN3C(=O)c3ccc(C)cc3-n3nccn3)[nH]c12` [Ex. 1.169], the pIC50 on human orexin-1 receptor is 7.43; at human orexin-2 receptor, 8.52.

As for `CSc1cccc2nc([C@@H]3CCCN3C(=O)c3c(C)cccc3-n3nccn3)[nH]c12` [Ex. 1.170], the figures for the pIC50 at human orexin-1 receptor and on human orexin-2 receptor were 6.59 and 7.70, respectively.

On to `COc1ccc2[nH]c([C@@H]3CCCN3C(=O)c3cc(C)ccc3-n3cccn3)nc2c1` [Ex. 1.171], for which the pIC50 at human orexin-1 receptor is 5.66; at human orexin-2 receptor, 7.44.

Take `COc1ccc2[nH]c([C@@H]3CCCN3C(=O)c3c(-n4nccn4)ccc(C)c3F)nc2c1` [Ex. 1.172]: the results for the pIC50 on human orexin-1 receptor and on human orexin-2 receptor were 5.94 and 7.72, respectively.

For `COc1ccc2[nH]c([C@@H]3CCCN3C(=O)c3nc(C)ccc3-n3nccn3)nc2c1` [Ex. 1.173], the pIC50 at human orexin-1 receptor is 5.41; on human orexin-2 receptor it was 7.27.

`CSc1cccc2[nH]c([C@@H]3CCCN3C(=O)c3c(-n4nccn4)ccc(C)c3F)nc12` [Ex. 1.174]: the values for the pIC50 at human orexin-1 receptor and at human orexin-2 receptor were 7.17 and 7.06, respectively.

Regarding `CSc1cccc2[nH]c([C@@H]3CCCN3C(=O)c3nc(C)ccc3-n3nccn3)nc12` [Ex. 1.175], the pIC50 on human orexin-1 receptor is 6.28; at human orexin-2 receptor it was 7.12.

For `CSc1ccc2[nH]c([C@@H]3CCCN3C(=O)c3ccccc3-n3cccn3)nc2c1` [Ex. 1.176], the values for the pIC50 at human orexin-1 receptor and at human orexin-2 receptor were 5.66 and 7.00, respectively.

For the molecule `CSc1ccc2[nH]c([C@@H]3CCCN3C(=O)c3cc(C)ccc3-n3cccn3)nc2c1` [Ex. 1.177], the figures for the pIC50 on human orexin-1 receptor and at human orexin-2 receptor were 6.07 and 7.52, respectively.

On to `CSc1ccc2[nH]c([C@@H]3CCCN3C(=O)c3nc(C)ccc3-n3cccn3)nc2c1` [Ex. 1.178], for which the pIC50 at human orexin-1 receptor is 5.57; at human orexin-2 receptor, 7.02.

On to `CSc1ccc2[nH]c([C@@H]3CCCN3C(=O)c3c(-n4nccn4)ccc(C)c3F)nc2c1` [Ex. 1.179], for which the pIC50 on human orexin-1 receptor is 6.31; on human orexin-2 receptor it was 7.55.

For the molecule `CSc1ccc2[nH]c([C@@H]3CCCN3C(=O)c3nc(C)ccc3-n3nccn3)nc2c1` [Ex. 1.180], the pIC50 on human orexin-1 receptor was 5.83; on human orexin-2 receptor it was 7.30.

As for `Cc1nc(C(=O)N2C[C@@H](F)C[C@H]2c2nc3c(C)cccc3[nH]2)c(-c2ccccc2)s1` [Ex. 2.2], the figures for the pIC50 at human orexin-1 receptor and on human orexin-2 receptor were 5.89 and 6.50, respectively.

For the molecule `Cc1nc(C(=O)N2C[C@H](F)C[C@H]2c2nc3c(C)cccc3[nH]2)c(-c2ccccc2)s1` [Ex. 2.3], the pIC50 at human orexin-1 receptor was 7.17; at human orexin-2 receptor, 7.21.

In the case of `Cc1nc(C(=O)N2CC(F)(F)C[C@H]2c2nc3c(C)cccc3[nH]2)c(-c2ccccc2)s1` [Ex. 2.4], the pIC50 was 6.37 at human orexin-1 receptor and 6.88 at human orexin-2 receptor.

Take `Cc1ccc(-n2nccn2)c(C(=O)N2C[C@H](F)C[C@H]2c2nc3c(C)c(Cl)ccc3[nH]2)c1` [Ex. 2.5]: the pIC50 is 8.22 on human orexin-1 receptor and 7.92 at human orexin-2 receptor.

Take `Cc1ccc(-n2nccn2)c(C(=O)N2CC(F)(F)C[C@H]2c2nc3c(C)c(Cl)ccc3[nH]2)c1` [Ex. 2.6]: the pIC50 on human orexin-1 receptor is 7.28; at human orexin-2 receptor, 7.23.

For `Cc1nc(C(=O)N2C[C@@H](F)C[C@H]2c2nc3c(C)c(Cl)ccc3[nH]2)c(-c2ccccc2)s1` [Ex. 2.7], the results for the negative logarithm of the IC50 (pIC50) at human orexin-1 receptor and at human orexin-2 receptor were 7.18 and 7.38, respectively.

Turning to `Cc1nc(C(=O)N2CC(F)(F)C[C@H]2c2nc3c(C)c(Cl)ccc3[nH]2)c(-c2ccccc2)s1` [Ex. 2.8], the pIC50 is 7.15 on human orexin-1 receptor and 7.29 at human orexin-2 receptor.

For the molecule `Cc1nc(C(=O)N2C[C@H](F)C[C@H]2c2nc3c(C)cccc3[nH]2)c(-c2cccc(Cl)c2)s1` [Ex. 2.9], the pIC50 is 7.77 at human orexin-1 receptor and 7.74 at human orexin-2 receptor.

Take `Cc1nc(C(=O)N2C[C@H](F)C[C@H]2c2nc3c(C)c(Cl)ccc3[nH]2)c(-c2cccc(Cl)c2)s1` [Ex. 2.10]: the pIC50 was 8.30 at human orexin-1 receptor and 8.10 at human orexin-2 receptor.

`Cc1ccc(-n2nccn2)c(C(=O)N2C[C@H](F)C[C@H]2c2nc3c(C)cccc3[nH]2)c1` [Ex. 2.11]: the pIC50 on human orexin-1 receptor was 7.16; on human orexin-2 receptor it was 6.91.

As for `CO[C@@H]1C[C@@H](c2nc3c(C)c(Cl)ccc3[nH]2)N(C(=O)c2cc(C)ccc2-n2nccn2)C1` [Ex. 3.2], the values for the pIC50 on human orexin-1 receptor and on human orexin-2 receptor were 7.89 and 8.22, respectively.

`CO[C@H]1C[C@@H](c2nc3c(C)cccc3[nH]2)N(C(=O)c2nc(C)sc2-c2ccccc2)C1` [Ex. 3.3]: the pIC50 on human orexin-1 receptor was 5.89; on human orexin-2 receptor it was 6.59.

For `CO[C@@H]1C[C@@H](c2nc3c(C)cccc3[nH]2)N(C(=O)c2nc(C)sc2-c2ccccc2)C1` [Ex. 3.4], the pIC50 at human orexin-1 receptor is 7.36; on human orexin-2 receptor it was 7.85.

As to `CO[C@H]1C[C@@H](c2nc3c(C)c(Cl)ccc3[nH]2)N(C(=O)c2nc(C)sc2-c2ccccc2)C1` [Ex. 3.5], the pIC50 at human orexin-1 receptor is 6.96; at human orexin-2 receptor, 7.13.

On to `CO[C@@H]1C[C@@H](c2nc3c(C)c(Cl)ccc3[nH]2)N(C(=O)c2nc(C)sc2-c2ccccc2)C1` [Ex. 3.6], for which the pIC50 is 8.30 on human orexin-1 receptor and 8.40 on human orexin-2 receptor.

For the molecule `CO[C@@H]1C[C@@H](c2nc3c(C)cccc3[nH]2)N(C(=O)c2nc(C)sc2-c2cccc(Cl)c2)C1` [Ex. 3.7], the pIC50 on human orexin-1 receptor is 8.05; on human orexin-2 receptor, 8.30.

As for `CO[C@H]1C[C@@H](c2nc3c(C)c(Cl)ccc3[nH]2)N(C(=O)c2nc(C)sc2-c2cccc(Cl)c2)C1` [Ex. 3.8], the pIC50 at human orexin-1 receptor was 7.66; at human orexin-2 receptor, 7.92.

As to `CO[C@@H]1C[C@@H](c2nc3c(C)c(Cl)ccc3[nH]2)N(C(=O)c2nc(C)sc2-c2cccc(Cl)c2)C1` [Ex. 3.9], the pIC50 is 9.00 at human orexin-1 receptor and 8.70 on human orexin-2 receptor.

Turning to `CO[C@@H]1C[C@@H](c2nc3ccc(Cl)c(C)c3[nH]2)N(C(=O)c2cc(Cl)ccc2-n2nccn2)C1` [Ex. 3.10], the pIC50 on human orexin-1 receptor was 7.35; at human orexin-2 receptor, 8.30.

In the case of `COc1ccc(-n2nccn2)c(C(=O)N2C[C@H](OC)C[C@H]2c2nc3ccc(Cl)c(C)c3[nH]2)c1F` [Ex. 3.11], the pIC50 on human orexin-1 receptor is 8.22; at human orexin-2 receptor, 8.05.

Regarding `COc1ccc(-n2nccn2)c(C(=O)N2C[C@H](OC)C[C@H]2c2nc3ccc(Cl)c(C)c3[nH]2)c1` [Ex. 3.12], the pIC50 on human orexin-1 receptor is 7.89; on human orexin-2 receptor it was 9.00.

As to `CO[C@@H]1C[C@@H](c2nc3ccc(Cl)c(C)c3[nH]2)N(C(=O)c2c(-n3nccn3)ccc(C)c2F)C1` [Ex. 3.13], the pIC50 at human orexin-1 receptor is 7.80; at human orexin-2 receptor, 8.15.

Take `CO[C@@H]1C[C@@H](c2nc3ccc(Cl)c(C)c3[nH]2)N(C(=O)c2c(C)cccc2-n2nccn2)C1` [Ex. 3.14]: the results for the pIC50 on human orexin-1 receptor and on human orexin-2 receptor were 6.17 and 7.64, respectively.

In the case of `CO[C@@H]1C[C@@H](c2nc3ccc(Cl)c(C)c3[nH]2)N(C(=O)c2ccc(C)cc2-n2nccn2)C1` [Ex. 3.15], the pIC50 is 7.02 on human orexin-1 receptor and 8.40 at human orexin-2 receptor.

Take `CO[C@@H]1C[C@@H](c2nc3ccc(Cl)c(C)c3[nH]2)N(C(=O)c2cc(C)c(C)cc2-n2nccn2)C1` [Ex. 3.16]: the pIC50 on human orexin-1 receptor is 7.62; at human orexin-2 receptor, 8.70.

As to `CO[C@@H]1C[C@@H](c2nc3ccc(Cl)c(C)c3[nH]2)N(C(=O)c2cc(C(F)(F)F)ccc2-n2nccn2)C1` [Ex. 3.17], the pIC50 on human orexin-1 receptor was 6.43; at human orexin-2 receptor, 7.29.

Regarding `CO[C@@H]1C[C@@H](c2nc3ccc(Cl)c(C)c3[nH]2)N(C(=O)c2cc(F)ccc2-n2nccn2)C1` [Ex. 3.18], the values for the pIC50 at human orexin-1 receptor and at human orexin-2 receptor were 7.01 and 8.40, respectively.

On to `COc1ccc2nc([C@@H]3C[C@@H](OC)CN3C(=O)c3cc(Cl)ccc3-n3nccn3)[nH]c2c1` [Ex. 3.19], for which the pIC50 is 5.71 at human orexin-1 receptor and 7.68 on human orexin-2 receptor.
